Experimental data: ChEMBL document CHEMBL4402554, “Discovery of a Bromodomain and Extraterminal Inhibitor with a Low Predicted Human Dose through Synergistic Use of Encoded Library Technology and Fragment Screening” (J Med Chem, 2020)
pIC50: −log10 of the molar value. Where “and” joins values, the source holds several entries; their conditions need not be identical. Equal values may be shown once. Calls of active or inactive are those of the source. The rule behind the calls is not given here.

Tests used:
[1] = target: T1, Bromodomain-containing protein 4 (Homo sapiens, UniProt O60885, Y390A); test: Displacement of Alexa Fluor 647 labelled ligand from recombinant human N-terminal His6-tagged BRD4 BD1 (1 to 477 residues)/BD2 Y390A mutant incubated for 60 mins by fluorescence polarization assay
[2] = Lipophilicity, log D of the compound at pH 7.4 by chromatographic method; assay type: physicochemical; conditions: buffer
[3] = target: T1, Bromodomain-containing protein 4; test: Displacement of Alexa Fluor 647 labelled ligand from recombinant human N-terminal His6-tagged BRD4 BD1 (1 to 477 residues)/BD2 Y390A mutant incubated for 30 mins by TR-FRET assay
[4] = target: Bromodomain adjacent to zinc finger domain protein 2A (Homo sapiens, UniProt Q9UIF9); test: Inhibition of BAZ2A (unknown origin) by TR-FRET assay
Chain of Bromodomain adjacent to zinc finger domain protein 2A (Q9UIF9 whole entry, the tested form may be a part): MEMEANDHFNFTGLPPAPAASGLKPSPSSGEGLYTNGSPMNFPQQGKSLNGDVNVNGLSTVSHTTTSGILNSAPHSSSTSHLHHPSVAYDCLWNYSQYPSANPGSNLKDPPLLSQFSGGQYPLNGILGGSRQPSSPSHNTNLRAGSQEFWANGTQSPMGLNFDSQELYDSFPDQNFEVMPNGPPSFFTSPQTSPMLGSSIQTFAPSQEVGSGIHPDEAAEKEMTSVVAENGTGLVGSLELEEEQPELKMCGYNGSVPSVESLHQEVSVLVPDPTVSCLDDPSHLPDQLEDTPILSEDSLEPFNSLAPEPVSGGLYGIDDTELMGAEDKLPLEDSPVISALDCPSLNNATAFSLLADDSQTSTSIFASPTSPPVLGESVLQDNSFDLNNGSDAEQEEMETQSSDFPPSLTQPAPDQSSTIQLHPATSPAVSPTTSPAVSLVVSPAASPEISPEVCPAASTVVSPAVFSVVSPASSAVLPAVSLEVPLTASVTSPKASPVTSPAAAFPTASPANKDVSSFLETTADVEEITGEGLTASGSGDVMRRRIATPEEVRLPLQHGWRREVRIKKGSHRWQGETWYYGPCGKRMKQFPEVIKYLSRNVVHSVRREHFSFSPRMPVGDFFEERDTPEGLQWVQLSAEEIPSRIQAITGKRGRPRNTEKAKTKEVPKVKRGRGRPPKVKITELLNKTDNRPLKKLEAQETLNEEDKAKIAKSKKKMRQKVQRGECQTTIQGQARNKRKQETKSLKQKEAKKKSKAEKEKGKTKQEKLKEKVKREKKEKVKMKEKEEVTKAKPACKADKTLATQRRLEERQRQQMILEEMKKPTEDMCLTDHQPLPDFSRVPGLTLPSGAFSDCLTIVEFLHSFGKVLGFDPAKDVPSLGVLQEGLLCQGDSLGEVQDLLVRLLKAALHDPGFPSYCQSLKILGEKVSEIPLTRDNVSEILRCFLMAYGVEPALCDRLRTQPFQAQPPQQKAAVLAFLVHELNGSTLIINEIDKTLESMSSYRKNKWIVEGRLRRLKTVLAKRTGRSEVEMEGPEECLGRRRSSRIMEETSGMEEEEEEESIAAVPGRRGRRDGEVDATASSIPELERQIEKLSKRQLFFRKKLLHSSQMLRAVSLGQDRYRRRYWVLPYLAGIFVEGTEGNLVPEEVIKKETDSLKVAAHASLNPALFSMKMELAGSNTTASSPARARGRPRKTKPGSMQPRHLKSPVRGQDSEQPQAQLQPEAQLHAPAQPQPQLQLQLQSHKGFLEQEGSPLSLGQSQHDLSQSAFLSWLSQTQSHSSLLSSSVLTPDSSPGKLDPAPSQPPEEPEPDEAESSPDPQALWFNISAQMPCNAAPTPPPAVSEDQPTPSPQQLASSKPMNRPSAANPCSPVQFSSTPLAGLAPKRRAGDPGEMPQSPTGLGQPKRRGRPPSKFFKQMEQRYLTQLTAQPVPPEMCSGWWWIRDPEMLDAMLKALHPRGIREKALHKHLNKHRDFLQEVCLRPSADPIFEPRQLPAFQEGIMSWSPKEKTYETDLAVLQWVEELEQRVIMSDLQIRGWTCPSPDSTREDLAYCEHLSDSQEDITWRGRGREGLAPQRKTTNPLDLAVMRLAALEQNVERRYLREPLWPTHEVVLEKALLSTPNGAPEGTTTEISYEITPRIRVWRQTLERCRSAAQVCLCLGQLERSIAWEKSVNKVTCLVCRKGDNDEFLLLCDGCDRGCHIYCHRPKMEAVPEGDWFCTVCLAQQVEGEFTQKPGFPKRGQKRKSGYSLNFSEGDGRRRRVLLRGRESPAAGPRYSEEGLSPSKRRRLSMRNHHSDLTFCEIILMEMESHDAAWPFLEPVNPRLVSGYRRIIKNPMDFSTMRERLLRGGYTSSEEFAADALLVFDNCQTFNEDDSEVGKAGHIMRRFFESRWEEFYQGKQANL

[5] = Metabolic stability in rat liver microsomes; assay type: ADME, Microsome
[6] = Stability in rat hepatocytes; assay type: ADME, cell-based, Hepatocyte
[7] = Fraction unbound in rat plasma at 1 mg/kg, iv; assay type: ADME, organism-based
[8] = Unbound clearance in rat at 1 mg/kg, iv; assay type: ADME, organism-based; conditions: in vivo
[9] = Clearance in rat at 1 mg/kg, iv; assay type: ADME, organism-based; conditions: in vivo
[10] = Volume of distribution at steady state in rat at 1 mg/kg, iv; assay type: ADME, organism-based; conditions: in vivo, read-out: Vdss
[11] = Half life in rat at 1 mg/kg, iv; assay type: ADME, organism-based; conditions: in vivo
[12] = Metabolic stability in dog liver microsomes; assay type: ADME, Canis lupus familiaris, Microsome
[13] = Stability in dog hepatocytes; assay type: ADME, cell-based, Canis lupus familiaris, Hepatocyte
[14] = Fraction unbound in dog plasma at 0.5 mg/kg, iv; assay type: ADME, organism-based, Canis lupus familiaris
[15] = Clearance in dog at 0.5 mg/kg, iv; assay type: ADME, organism-based, Canis lupus familiaris; conditions: in vivo
[16] = Unbound clearance in dog at 0.5 mg/kg, iv; assay type: ADME, organism-based, Canis lupus familiaris; conditions: in vivo
[17] = Volume of distribution at steady state in dog at 0.5 mg/kg, iv; assay type: ADME, organism-based, Canis lupus familiaris; conditions: in vivo; for Vd: read-out: Vdss
[18] = Half life in dog at 0.5 mg/kg, iv; assay type: ADME, organism-based, Canis lupus familiaris; conditions: in vivo
[19] = Oral bioavailability in dog at 1 mg/kg; assay type: ADME, organism-based, Canis lupus familiaris; conditions: in vivo
[20] = Metabolic stability in human liver microsomes; assay type: ADME, Microsome
[21] = Stability in human hepatocytes; assay type: ADME, cell-based, Hepatocyte
[22] = Fraction unbound in human plasma; assay type: ADME, cell-free
[23] = species on record: Homo sapiens; test: Selectivity ratio of pIC50 for Alexa Fluor 647 labelled ligand from recombinant human N-terminal His6-tagged BRD4 BD1 (1 to 477 residues)/BD2 Y390A mutant to pIC50 for BAZ2A (unknown origin)
[24] = Oral bioavailability in rat at 3 mg/kg; conditions: in vivo
[25] = system: Blood; test: Inhibition of LPS-induced IL6 production in human whole blood preincubated for 30 mins followed by LPS addition measured after 18 to 24 hrs; assay type: functional, tissue-based
[26] = system: Blood; test: Inhibition of LPS-induced MCP1 production in human whole blood preincubated for 30 mins followed by LPS addition measured after 18 to 24 hrs; assay type: functional, tissue-based
[27] = Metabolic stability in CD-1 mouse liver microsomes; assay type: ADME, Microsome
[28] = Stability in CD-1 mouse hepatocytes; assay type: ADME, cell-based, Hepatocyte
[29] = AUC (0 to infinity) in CD-1 mouse at 3 mg/kg, po; assay type: ADME, organism-based; set-up: dose 3 mg/kg, route oral, time infinity; conditions: in vivo
[30] = AUC (0 to infinity) in rat at 3 mg/kg, po; assay type: ADME, organism-based; set-up: dose 3 mg/kg, route oral, time infinity; conditions: in vivo
[31] = AUC (0 to infinity) in rat at 30 mg/kg, po; assay type: ADME, organism-based; set-up: dose 30 mg/kg, route oral, time infinity; conditions: in vivo
[32] = Oral bioavailability in rat at 30 mg/kg; assay type: ADME, organism-based; conditions: in vivo
[33] = AUC (0 to infinity) in dog at 1.5 mg/kg, po; assay type: ADME, organism-based, Canis lupus familiaris; set-up: dose 1.5 mg/kg, route oral, time infinity; conditions: in vivo
[34] = system: Mus musculus; test: Antiinflammatory activity in LPS-challenged CD-1 mouse assessed as reduction in cytokine production at 1 to 10 mg/kg, po administrated as single dose 30 mins prior to LPS challenge measured after 5 hrs by immunoassay; assay type: functional, organism-based
[35] = system: Mus musculus; test: Antiinflammatory activity in TNP-KLH- treated CD-1 mouse T cell-dependent immunization model assessed as IgG1 level at 3 mg/kg, po qd treated for 0.5 hrs followed by TNP-KLH treatment and measured after 14 days by ELISA analysis; assay type: functional
[36] = system: Mus musculus; test: Antiinflammatory activity in TNP-KLH- treated CD-1 mouse T cell-dependent immunization model assessed as IgG1 level at 0.3 mg/kg, po qd treated for 0.5 hrs followed by TNP-KLH treatment and measured after 14 days by ELISA analysis; assay type: functional
[37] = system: Mus musculus; test: Antiinflammatory activity in TNP-KLH- treated CD-1 mouse T cell-dependent immunization model assessed as IgG1 level at 3 mg/kg, po qod treated for 0.5 hrs followed by TNP-KLH treatment and measured after 14 days by ELISA analysis; assay type: functional
[38] = Solubility of compound in pH 6.5 FASSIF at 1 mg incubated for 4 hrs by HPLC-UV analysis; assay type: physicochemical

Compound: CNC(=O)c1ccc2c(c1)nc(-c1cc(C)c(O)c(C)c1)n2CC1CCN(C(C)=O)CC1
- pIC50 [1]: 6.60
- chromatographic logD [2]: 2

Compound: O=C(CO)N1CCC(Cn2c(-c3ccc(=O)[nH]c3)nc3ccccc32)CC1
- pIC50 [3]: < 4.30

Compound: Cc1cc(-c2nc3cc(N(C)C)ccc3n2CC2CCOCC2)cn(C)c1=O
- chromatographic logD [2]: 2.9

Compound: Cc1cc(-c2nc3ccccc3n2CC2CCCOC2)cn(C)c1=O (configuration not stated)
- pIC50 [3]: 7.50 and 7.60
- pIC50 [4]: 4.60 and 4.10

Compound: COCC(COC)n1c(-c2cc(C)c(=O)n(C)c2)nc2ccccc21
- pIC50 [3]: 7.40
- pIC50 [4]: < 4.00
- Stability [5]: < 0.46 mL/min/g
- Stability [6]: 1.1 mL/min/g
- fraction unbound [7]: 0.59
- CL free [8]: 63 mL/min/kg
- clearance [9]: 37 mL/min/kg
- Vd [10]: 2.1 L/kg
- half-life [11]: 3.2 h
- Stability [12]: < 0.37 mL/min/g
- Stability [13]: < 1.3 mL/min/g
- fraction unbound [14]: 0.57
- clearance [15]: 5 mL/min/kg
- CL free [16]: 9 mL/min/kg
- Vd [17]: 0.8 L/kg
- half-life [18]: 1.7 h
- bioavailability [19]: 46%
- Stability [20]: < 0.4 mL/min/g
- Stability [21]: < 0.87 mL/min/g
- fraction unbound [22]: 0.37
- Ratio pIC50 [23]: > 3.7
- bioavailability [24]: 46%

Compound: CC(=O)N1CCC(Cn2c(-c3cc(C)c(O)c(C)c3)nc3ccccc32)C1 (racemic)
- pIC50 [3]: 5.60

Compound: Cc1cc(-c2nc3ccccc3n2CC2CC3(COC3)C2)cn(C)c1=O
- pIC50 [3]: 7.30
- pIC50 [4]: 4.20
- Stability [5]: 0.99 mL/min/g
- Stability [20]: < 0.4 mL/min/g
- Ratio pIC50 [23]: 3.1

Compound: Cc1cc(-c2nc3ccccc3n2CCC2CCOCC2)cn(C)c1=O
- pIC50 [3]: 7.30
- pIC50 [4]: 4.40
- Ratio pIC50 [23]: 2.9

Compound: COCC(COC)n1c(-c2cc(C)c(=O)n(C)c2)nc2cc(N3CCOCC3)ccc21
- pIC50 [25]: 7.70
- pIC50 [26]: 7.60
- pIC50 [4]: 4.20
- Stability [5]: < 0.46 mL/min/g
- Stability [6]: < 0.8 mL/min/g
- fraction unbound [7]: 0.69
- CL free [8]: 24 mL/min/kg
- clearance [9]: 17 mL/min/kg
- Vd [10]: 2.3 L/kg
- half-life [11]: 3.8 h
- Stability [12]: < 0.37 mL/min/g
- Stability [13]: < 1.3 mL/min/g
- fraction unbound [14]: 0.5
- CL free [16]: 4 mL/min/kg
- Vdss [17]: 0.9 L/kg
- t1/2 [18]: 5.3 h
- bioavailability [19]: 101%
- Stability [20]: < 0.4 mL/min/g
- Stability [21]: < 0.87 mL/min/g
- fraction unbound [22]: 0.72
- Stability [27]: < 0.48 mL/min/g
- Stability [28]: < 1 mL/min/g
- AUC(0-inf) [29]: 3620 ng·h/mL
- AUC(0-inf) [30]: 2610 ng·h/mL
- AUC(0-inf) [31]: 27000 ng·h/mL
- bioavailability [32]: 93%
- AUC(0-inf) [33]: 12500 ng·h/mL
- Activity [34]: Active
- Activity [35]: 20%
- Activity [36]: 65%
- Activity [37]: 65%
- bioavailability [24]: 94%

Compound: Cc1cc(-c2nc3cc(N4CCOCC4)ccc3n2CC2CCOCC2)cn(C)c1=O
- pIC50 [3]: 8.00
- chromatographic logD [2]: 2.3
- pIC50 [26]: 7.90
- solubility at 4 h [38]: > 1000 µg/mL

Compound: Cc1cc(-c2nc3ccccc3n2C[C@H]2CC[C@H](O)CC2)cn(C)c1=O
- pIC50 [3]: 7.10
- pIC50 [4]: 4.30
- Ratio pIC50 [23]: 2.8

Compound: CC(=O)N[C@H]1CC[C@@H](Cn2c(-c3cc(C)c(O)c(C)c3)nc3ccccc32)CC1
- pIC50 [3]: 6.30

Compound: Cc1cc(-c2nc3ccccc3n2C(C)C2CCOCC2)cn(C)c1=O (configuration not stated)
- Ratio pIC50 [23]: 1.4 and 0.9

Compound: CC(=O)N1CCC(Cn2c(-c3cc(C)c(O)c(C)c3)nc3ccccc32)CC1
- pIC50 [3]: 6.30

Compound: Cn1cc(-c2nc3ccccc3n2CC2CCN(C(=O)CO)CC2)ccc1=O
- pIC50 [3]: 5.10

Compound: Cc1cc(-c2nc3ccccc3n2CC2CCOCC2)cn(C)c1=O
- pIC50 [25]: 6.70
- pIC50 [26]: 6.60
- pIC50 [4]: 6.50
- solubility at 4 h [38]: > 1000 µg/mL
- Stability [5]: 3.2 mL/min/g
- Stability [6]: 17 mL/min/g
- fraction unbound [7]: 0.55
- CL free [8]: 149 mL/min/kg
- clearance [9]: 82 mL/min/kg
- Vd [10]: 1.4 L/kg
- half-life [11]: 0.2 h
- Stability [12]: < 0.37 mL/min/g
- Stability [13]: < 1.3 mL/min/g
- fraction unbound [14]: 0.47
- clearance [15]: 8 mL/min/kg
- CL free [16]: 17 mL/min/kg
- Vd [17]: 1.4 L/kg
- half-life [18]: 2.3 h
- bioavailability [19]: 97%
- Stability [20]: 0.83 mL/min/g
- Stability [21]: < 0.87 mL/min/g
- fraction unbound [22]: 0.4

Compound: CCC(C1CCOCC1)n1c(-c2cc(C)c(=O)n(C)c2)nc2ccccc21 (configuration not stated)
- pIC50 [3]: 6.10 and 6.80
- Ratio pIC50 [23]: > 2.1 and 1.6

Compound: CNC(=O)c1ccc2c(c1)nc(-c1cc(C)c(O)c(C)c1)n2CC1CCN(C(=O)c2ccccc2)CC1
- pIC50 [1]: 6.90
- pIC50 [3]: 6.70
- chromatographic logD [2]: 3.2

Compound: CC(=O)N1CCC(n2c(-c3cc(C)c(O)c(C)c3)nc3ccccc32)CC1
- pIC50 [3]: 5.80

Compound: CC(=O)N1CC(Cn2c(-c3cc(C)c(O)c(C)c3)nc3ccccc32)C1
- pIC50 [3]: 5.80

Compound: Cn1cc(-c2nc[nH]c2-c2ccc(F)cc2)ccc1=O
- pIC50 [3]: 5.20

Compound: CNC(=O)c1ccc2c(c1)nc(-c1cc(C)c(O)c(C)c1)n2CC1CCNCC1
- pIC50 [3]: 5.70
- chromatographic logD [2]: 0.8

Compound: CC(=O)N[C@H]1CC[C@H](Cn2c(-c3cc(C)c(O)c(C)c3)nc3ccccc32)CC1
- pIC50 [3]: 5.80

Compound: Cc1cc(-c2nc3ccccc3n2CC2CCN(C(=O)CO)CC2)c[nH]c1=O
- pIC50 [3]: 5.80

Compound: COCC(C)n1c(-c2cc(C)c(=O)n(C)c2)nc2ccccc21 (racemic)
- pIC50 [3]: 6.50
- pIC50 [4]: 4.40
- Ratio pIC50 [23]: 2.1
